# Test results: PubChem BioAssay AID2060488 (Molecular Pharmacology Branch, DTP, NCI, 2025)
# pIC50: −log10 of the molar value. “And” between values parts separate entries of the source, which are not always exact repeats. Equal entries are not always repeated.
# Tested on: 966289-007-R4-J1-PDC complex spheroid viability
# Assay: Anticancer human tumor 966289-007-R4-J1-PDC patient-derived pancreatic adenocarcinoma cell line growth inhibition [GQUAD]
# Settings: for viability, T/C: stronger effect = lower value
# Text: DNA G-quadruplex Stabilizer Agents in Combinations in Complex Spheroids
# A high-throughput screen of multi-cell type tumor spheroids was designed to identify active combinations of DNA G-quadruplex stabilizer agents and targeted small molecules. Complex spheroids include a stromal component modeled by human endothelial cells (HUVEC) and fibroblasts modeled by human mesenchymal stem cells (MSCs). The concentration ranges selected for each drug and investigational agent were based upon clinically achievable concentrations if the clinical Cmax of the agent was known.
# Compounds. The drugs and investigational agents: pidnarulex (CX-5461; NSC782164), APTO-253 (NSC789042), BRACO-19 (NSC847499), peposertib (NSC802822), ceralasertib (NSC780249), elimusertib (NSC800525), camonsertib (NSC841442), AZD-1390 (NSC803789), olaparib (NSC753686), talazoparib (NSC767125), ART-558 (NSC835418), sotorasib (NSC818433), MRTX-1133 (NSC836407), SN-38 (NSC673596), topotecan (NSC609699), etoposide (NSC141540), doxorubicin (NSC123127), gemcitabine (NSC613327), 5-fluorouracil (NSC19893), paclitaxel (NSC125973), vemurafenib (NSC761431), panobinostat (NSC761190), R-306465 (JNJ-16241199; NSC773264), adavosertib (NSC754352), TP-3654 (NSC805149), carboplatin (NSC241240), KSQ-4279 (NSC840948), and staurosporine (NSC755774) were obtained from the National Cancer Institute (NCI) Developmental Therapeutics Program Chemical Repository (34). The FDA-approved anticancer drug set is available from the NCI Developmental Therapeutics Program. […] The stock solutions were prepared in dimethyl sulfoxide (DMSO, Sigma-Aldrich, St. Louis, MO, cat. D2650) at 800-fold the tested concentration and stored at -70 degrees C prior to their use. All drugs and investigational agents were tested over a range starting from a high concentration at or near the clinical Cmax and decreasing in half-log increments. If the clinical Cmax for an agent had not been determined, the highest concentration tested was 10 microM.
# 2.3 Cell Culture. All cells were maintained in an incubator at 37 degrees C and 5% CO2 with 95% humidity. The PDC lines were cultured according to standard operating procedures established by the NCI PDMR. All PDCs were thawed and cultured in Matrigel-coated flasks prepared with a working solution of 1X Ham's F-12 nutrient mix, without supplementation (Invitrogen, cat. 11765054), 100 U/mL penicillin-streptomycin (Invitrogen, cat. 15140122), and 2.5% Matrigel (Corning Inc., cat. 354248) for the first three passages. The 857933-349-R-J2-PDC line was cultured in 6C/Colon 1B media, which includes advanced DMEM/F-12 (Thermo Fisher Scientific, cat. 12634028), 10 mM HEPES (Thermo Fisher Scientific, cat. 15630080), 1X GlutaMAX supplement (Thermo Fisher Scientific, cat. 35050061), 0.1 mg/mL primocin (InvivoGen, cat. ant-pm-2), 10% defined fetal bovine serum, heat inactivated (HyClone Laboratories Inc., cat. SH30070.03HI), 50% L-WRN conditioned media (ATCC, cat. CRL-3276), 1.25 mM N-Acetyl-L-cysteine (Sigma-Aldrich, cat. A9165), 10 mM nicotinamide (Sigma-Aldrich, cat. N0636), 1X B-27 supplement (Thermo Fisher Scientific, cat. 17504044), 1X N-2 supplement (Thermo Fisher Scientific, cat. 17502048), 10 microM Y-27632 dihydrochloride (Tocris Bioscience, cat. 1254), and 50 ng/mL human EGF recombinant protein (Thermo Fisher Scientific, cat. PHG0311). The 485176-168-R4-J1-PDC line was cultured in Panc media, which includes all 6C/Colon 1B media components plus 100 ng/mL human FGF-10 (Thermo Fisher Scientific, cat. 100-26), 500 nM SB-431542 (Selleckchem, cat. S1067), and gastrin (Tocris, cat. 3006).
# […]
# 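Also: spheroids exposed to the agents for seven days before readout.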
# 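For viability, T/C in this document: percent viability relative to DMSO vehicle control wells taken as 100%.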
smiles,measurement,setting,value
CC(C)(O)C1CCC(Nc2ccc3ncc(-c4cccc(C(F)(F)F)c4)n3n2)CC1 (stereo unspecified),"viability, T/C",compound 0.0316 µM,105% and 92.3% and 96.8%
same,"viability, T/C",compound 0.1 µM,100% and 95.3% and 106%
same,"viability, T/C",compound 0.316 µM,98.5% and 95.1% and 91.2%
same,"viability, T/C",compound 1 µM,93.8% and 90.5% and 107%
same,"viability, T/C",compound 3.16 µM,42.9% and 43.5% and 36.2%
same,"viability, T/C",compound 10 µM,75.9% and 49.8% and 33.1%
same,pIC50,curve of compound,< 5.00 and 5.54 and 5.61
Cc1[nH]c2ccccc2c1CCNCc1ccc(/C=C/C(=O)NO)cc1,"viability, T/C",compound 0.000999 µM,110% and 92.2% and 99.7%
same,"viability, T/C",compound 0.00316 µM,100% and 103% and 113%
same,"viability, T/C",compound 0.00999 µM,104% and 91% and 101%
same,"viability, T/C",compound 0.0316 µM,100% and 97.8% and 99.5%
same,"viability, T/C",compound 0.0999 µM,31.1% and 30.7% and 17.7%
same,"viability, T/C",compound 0.316 µM,4.6% and 4.59% and 3.46%
same,pIC50,curve of compound,7.14 and 7.15 and 7.20
CC(C)(O)C1CCC(Nc2ccc3ncc(-c4cccc(C(F)(F)F)c4)n3n2)CC1 (stereo unspecified) + CN(C)c1ccc(Nc2c3ccc(NC(=O)CCN4CCCC4)cc3nc3cc(NC(=O)CCN4CCCC4)ccc23)cc1,pIC50,"curve of first compound, second compound 0.0316 µM",< 5.00
same,pIC50,"curve of first compound, second compound 0.1 µM",5.53
same,pIC50,"curve of first compound, second compound 0.316 µM",5.51
same,pIC50,"curve of first compound, second compound 1 µM",5.68
same,pIC50,"curve of first compound, second compound 3.16 µM",5.74
same,pIC50,"curve of first compound, second compound 10 µM",6.18
same,"viability, T/C","second compound 0.0316 µM, first compound 0.0316 µM",108%
same,"viability, T/C","second compound 0.0316 µM, first compound 0.1 µM",102%
same,"viability, T/C","second compound 0.0316 µM, first compound 0.316 µM",101%
same,"viability, T/C","second compound 0.0316 µM, first compound 1 µM",95.3%
same,"viability, T/C","second compound 0.0316 µM, first compound 3.16 µM",53.1%
same,"viability, T/C","second compound 0.0316 µM, first compound 10 µM",57.9%
same,"viability, T/C","second compound 0.1 µM, first compound 0.0316 µM",109%
same,"viability, T/C","second compound 0.1 µM, first compound 0.1 µM",101%
same,"viability, T/C","second compound 0.1 µM, first compound 0.316 µM",98.1%
same,"viability, T/C","second compound 0.1 µM, first compound 1 µM",103%
same,"viability, T/C","second compound 0.1 µM, first compound 3.16 µM",39.4%
same,"viability, T/C","second compound 0.1 µM, first compound 10 µM",53.4%
same,"viability, T/C","second compound 0.316 µM, first compound 0.0316 µM",97.7%
same,"viability, T/C","second compound 0.316 µM, first compound 0.1 µM",100%
same,"viability, T/C","second compound 0.316 µM, first compound 0.316 µM",95.8%
same,"viability, T/C","second compound 0.316 µM, first compound 1 µM",110%
same,"viability, T/C","second compound 0.316 µM, first compound 3.16 µM",43.9%
same,"viability, T/C","second compound 0.316 µM, first compound 10 µM",53.8%
same,"viability, T/C","second compound 1 µM, first compound 0.0316 µM",95.1%
same,"viability, T/C","second compound 1 µM, first compound 0.1 µM",103%
same,"viability, T/C","second compound 1 µM, first compound 0.316 µM",102%
same,"viability, T/C","second compound 1 µM, first compound 1 µM",97.5%
same,"viability, T/C","second compound 1 µM, first compound 3.16 µM",18.3%
same,"viability, T/C","second compound 1 µM, first compound 10 µM",28.3%
same,"viability, T/C","second compound 3.16 µM, first compound 0.0316 µM",103%
same,"viability, T/C","second compound 3.16 µM, first compound 0.1 µM",98.7%
same,"viability, T/C","second compound 3.16 µM, first compound 0.316 µM",100%
same,"viability, T/C","second compound 3.16 µM, first compound 1 µM",106%
same,"viability, T/C","second compound 3.16 µM, first compound 3.16 µM",2.64%
same,"viability, T/C","second compound 3.16 µM, first compound 10 µM",1.96%
same,"viability, T/C","second compound 10 µM, first compound 0.0316 µM",103%
same,"viability, T/C","second compound 10 µM, first compound 0.1 µM",104%
same,"viability, T/C","second compound 10 µM, first compound 0.316 µM",104%
same,"viability, T/C","second compound 10 µM, first compound 1 µM",20.9%
same,"viability, T/C","second compound 10 µM, first compound 3.16 µM",0.21%
same,"viability, T/C","second compound 10 µM, first compound 10 µM",0.8%
CC(=O)O[C@H]1C(=O)[C@@]2(C)[C@H]([C@H](OC(=O)c3ccccc3)[C@]3(O)C[C@H](OC(=O)[C@H](O)[C@@H](NC(=O)c4ccccc4)c4ccccc4)C(C)=C1C3(C)C)[C@]1(OC(C)=O)CO[C@@H]1C[C@@H]2O,"viability, T/C",compound 0.0316 µM,5.97% and 4.08%
same,"viability, T/C",compound 0.1 µM,3.17% and 2.51%
same,"viability, T/C",compound 0.316 µM,4.33% and 3.04%
same,"viability, T/C",compound 1 µM,6.75% and 5.13%
same,"viability, T/C",compound 3.16 µM,9.64% and 6.14%
same,"viability, T/C",compound 10 µM,14.1% and 8.4%
same,pIC50,curve of compound,> 7.50
Cc1cnc(CNC(=O)c2c(=O)c3ccc(N4CCCN(C)CC4)nc3n3c2sc2ccccc23)cn1,"viability, T/C",compound 0.1 µM,36.7% [middle of 12 runs]
same,"viability, T/C",compound 0.316 µM,12.6% [middle of 12 runs]
same,"viability, T/C",compound 1 µM,6.91% [middle of 11 runs]
same,"viability, T/C",compound 3.16 µM,5.45% [middle of 11 runs]
same,"viability, T/C",compound 10 µM,0.16% [middle of 11 runs]
same,IC50,"compound alone, run of 03/18/2024",81.7 nM [middle of 11 runs]
CC(C)n1c(=O)n(C)c2cnc3cc(F)c(-c4ccc(OCCCN5CCCCC5)nc4)cc3c21,"viability, T/C",compound 0.0316 µM,101% and 103% and 95.4%
same,"viability, T/C",compound 0.1 µM,103% and 106% (2×)
same,"viability, T/C",compound 0.316 µM,114% and 106% and 102%
same,"viability, T/C",compound 1 µM,107% and 105% and 114%
same,"viability, T/C",compound 3.16 µM,107% (2×) and 116%
same,"viability, T/C",compound 10 µM,86% and 88.6% and 91.8%
same,pIC50,curve of compound,< 5.00
